Literature values, collected in patent US10894026B2, “Pharmaceutical compositions comprising a fumaric acid ester and method for the preparation thereof” (PHARMATHEN S.A., priority 2016, dated 2021).
Structures can show the parent of a compound that is named as a salt.

COC(=O)/C=C/C(=O)OC [Dimethyl fumarate, (E)-2-butenedioic acid dimethyl ester]
solubility in methanol (methanol): sparingly soluble | solubility in water (water): insoluble
